Data as given in PMC9229919, “4-Aminoquinoline-Based Adamantanes as Potential Anticholinesterase Agents in Symptomatic Treatment of Alzheimer’s Disease” (Pharmaceutics, 2022).
Where two headings read alike, the source gives them in different places.

Legend:
[1] = biological target: T1, purified human BChE (Homo sapiens, UniProt P06276); assay: biochemical; type: biochemical
T1 construct: possibly also a gift of Dr Florian Nachon (the sentence is ambiguous)
Description: (§1) Acetylthiocholine (ATCh) and 5,5′-dithiobis(2-nitrobenzoic acid) (DTNB) were purchased from Sigma-Aldrich, St. Louis, MO, USA. ATCh was dissolved in water and DTNB in 0.1 M sodium phosphate buffer (pH 7.4). The 4-aminoquinilines were dissolved in DMSO and all further dilutions were made in water.
(§2) The sources of AChE and BChE were purified human BChE and recombinant human AChE that was kindly provided by Dr Florian Nachon (Département de Toxicologie, Armed Forces Biomedical Research Institute, Brétigny-sur-Orge, France). […] The enzymes were diluted in sodium phosphate buffer 0.1 M (pH 7.4) containing 0.1% BSA.
(§3) Enzyme activities were measured spectrophotometrically using a slightly modified Ellman method, as described earlier. […] At least three inhibitor concentrations for each substrate concentration were used in at least three experiments. The apparent inhibition constant (Ki,app) was calculated using the Hunter–Downs Equation and linear regression analysis:(1) Ki,app=vi·i/v0−vi=Ki+Ki/KS·s where the y-intercept determines the enzyme-inhibitor dissociation constant (Ki), while the x-intercept determines the enzyme-substrate dissociation constant, KS.
(§4) The Hunter–Downs Equation was used under the assumption that the substrate, due to relatively low concentrations used in experiments, would bind only to the catalytic site of the enzymes, while the inhibitors would bind to both CAS and/or PAs. This allowed the type of inhibition to be determined from Ki,app vs. substrate concentration ([S]) dependency on Hunter–Downs plot.
(§5) The final content of DMSO in the measurements was up to 0.2%. […] The measurements were performed at 25 °C on a Tecan Infinite M200Pro plate reader (Tecan Austria GmbH, Salzburg, Austria).

[2] = biological target: T2, recombinant human AChE (Homo sapiens, UniProt P22303); assay: biochemical; type: biochemical; conditions: for IS: IS = Ki(BChE)/Ki(AChE), IS > 1 selective to AChE
T2 construct: gift of Dr Florian Nachon (Armed Forces Biomedical Research Institute, Brétigny-sur-Orge, France)
T2 sequence (P22303 32-614): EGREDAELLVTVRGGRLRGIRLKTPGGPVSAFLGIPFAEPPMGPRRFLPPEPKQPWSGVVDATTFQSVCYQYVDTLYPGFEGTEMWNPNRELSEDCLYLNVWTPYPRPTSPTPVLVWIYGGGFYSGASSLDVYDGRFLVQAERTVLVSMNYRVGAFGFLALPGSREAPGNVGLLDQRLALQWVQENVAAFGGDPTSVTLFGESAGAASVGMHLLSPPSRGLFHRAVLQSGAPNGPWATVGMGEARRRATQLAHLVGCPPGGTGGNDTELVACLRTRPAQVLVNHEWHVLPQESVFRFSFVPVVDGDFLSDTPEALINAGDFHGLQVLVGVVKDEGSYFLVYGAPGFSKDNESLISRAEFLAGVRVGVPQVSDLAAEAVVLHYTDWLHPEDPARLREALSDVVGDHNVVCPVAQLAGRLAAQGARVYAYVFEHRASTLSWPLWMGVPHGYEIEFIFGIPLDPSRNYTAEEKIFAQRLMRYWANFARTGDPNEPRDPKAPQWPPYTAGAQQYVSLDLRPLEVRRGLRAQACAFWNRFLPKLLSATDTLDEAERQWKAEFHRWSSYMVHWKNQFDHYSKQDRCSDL
Description: as §1, §2, §3, §4, §5

[3] = Ferric reducing antioxidant power (FRAP) assay; conditions: mean ± standard error of three experiments;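 note: expressed as µM Fe2+ equivalents from an FeSO4·7H2O standard curve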
Description: . All the chemicals were purchased from Sigma-Aldrich (St. Louis, MO, USA), except for tripyridyltriazine (TPTZ) (Fluka, Buchs, Switzerland) and FeCl3 (Kemika, Zagreb, Croatia). The FRAP assay was assessed according to Benzie and Strain [53] with slight procedure adjustments for 96-well microplates. The method is based on the reduction of the ferric-tripyridyltriazine (Fe^3+-TPTZ) complex to ferrous tripyridyltriazine (Fe^2+-TPTZ) by the action of electron-donating compounds at a low pH. Briefly, the FRAP reagent was prepared by mixing acetate buffer (300 mM, pH 3.6), a solution of 10 mM TPTZ in 40 mM HCl, and 20 mM FeCl3 at 10:1:1 (v/v/v). Then, 240 μL of FRAP reagent and 10 μL of sample solution were added to a 96-well plate and incubated at 37 °C for 60 min. The absorbance was measured at 593 nm using a microplate reader (Infinite M200PRO, Tecan Austria GmbH, Salzburg, Austria) against a blank. The reducing capacity was determined for 10 and 100 µM compound concentrations. […]. All measurements were performed in three independent experiments. FRAP values, denominating the reduction of ferric-tripyridyltriazine (Fe^3+-TPTZ) to ferrous tripyridyltriazine (Fe^2+-TPTZ) by 4-aminoquinolines were calculated based on a standard curve obtained using […].

[4] = Reverse-phase thin-layer chromatographic lipophilicity (RF, RM0); type: physicochemical; conditions: for RM0: intercept of RM = RM0 + bC; for b: slope of RM = RM0 + bC; for RF, Methanol/Water/Hydrochloric acid (conc.), mobile phase I / RF, Dioxane/Water/Hydrochloric acid (conc.), mobile phase II / RF, Methanol/Water/Hydrochloric acid (conc.), mobile phase II / RF, Acetone/Water/Hydrochloric acid (conc.), mobile phase III / RF, Dioxane/Water/Hydrochloric acid (conc.), mobile phase III / RF, Methanol/Water/Hydrochloric acid (conc.), mobile phase III / RF, Dioxane/Water/Hydrochloric acid (conc.), mobile phase IV / RF, Acetone/Water/Hydrochloric acid (conc.), mobile phase IV / RF, Methanol/Water/Hydrochloric acid (conc.), mobile phase IV / RF, Acetone/Water/Hydrochloric acid (conc.), mobile phase IX / RF, Methanol/Water/Hydrochloric acid (conc.), mobile phase IX / RF, Dioxane/Water/Hydrochloric acid (conc.), mobile phase V / RF, Acetone/Water/Hydrochloric acid (conc.), mobile phase V / RF, Methanol/Water/Hydrochloric acid (conc.), mobile phase V / RF, Dioxane/Water/Hydrochloric acid (conc.), mobile phase VI / RF, Acetone/Water/Hydrochloric acid (conc.), mobile phase VI / RF, Methanol/Water/Hydrochloric acid (conc.), mobile phase VI / RF, Acetone/Water/Hydrochloric acid (conc.), mobile phase VII / RF, Methanol/Water/Hydrochloric acid (conc.), mobile phase VII / RF, Acetone/Water/Hydrochloric acid (conc.), mobile phase VIII / RF, Methanol/Water/Hydrochloric acid (conc.), mobile phase VIII: RP-18 silica; for RF, Methanol/Water/Hydrochloric acid (conc.), mobile phase I: I = 90%MeOH/5%H2O/5%HCl; for RF, Dioxane/Water/Hydrochloric acid (conc.), mobile phase II: II = 80%Dioxane/15%H2O/5%HCl; for RF, Methanol/Water/Hydrochloric acid (conc.), mobile phase II: II = 85%MeOH/10%H2O/5%HCl; for RF, Acetone/Water/Hydrochloric acid (conc.), mobile phase III: III = 70%AC/25%H2O/5%HCl; for RF, Dioxane/Water/Hydrochloric acid (conc.), mobile phase III: III = 70%Dioxane/25%H2O/5%HCl; for RF, Methanol/Water/Hydrochloric acid (conc.), mobile phase III: III = 80%MeOH/15%H2O/5%HCl; for RF, Dioxane/Water/Hydrochloric acid (conc.), mobile phase IV: IV = 60%Dioxane/35%H2O/5%HCl; for RF, Acetone/Water/Hydrochloric acid (conc.), mobile phase IV: IV = 65%AC/30%H2O/5%HCl; for RF, Methanol/Water/Hydrochloric acid (conc.), mobile phase IV: IV = 75%MeOH/20%H2O/5%HCl; for RF, Acetone/Water/Hydrochloric acid (conc.), mobile phase IX: IX = 40%AC/55%H2O/5%HCl; for RF, Methanol/Water/Hydrochloric acid (conc.), mobile phase IX: IX = 50%MeOH/45%H2O/5%HCl; for RF, Dioxane/Water/Hydrochloric acid (conc.), mobile phase V: V = 50%Dioxane/45%H2O/5%HCl; for RF, Acetone/Water/Hydrochloric acid (conc.), mobile phase V: V = 60%AC/35%H2O/5%HCl; for RF, Methanol/Water/Hydrochloric acid (conc.), mobile phase V: V = 70%MeOH/25%H2O/5%HCl; for RF, Dioxane/Water/Hydrochloric acid (conc.), mobile phase VI: VI = 40%Dioxane/55%H2O/5%HCl; for RF, Acetone/Water/Hydrochloric acid (conc.), mobile phase VI: VI = 55%AC/40%H2O/5%HCl; for RF, Methanol/Water/Hydrochloric acid (conc.), mobile phase VI: VI = 65%MeOH/30%H2O/5%HCl; for RF, Acetone/Water/Hydrochloric acid (conc.), mobile phase VII: VII = 50%AC/45%H2O/5%HCl; for RF, Methanol/Water/Hydrochloric acid (conc.), mobile phase VII: VII = 60%MeOH/35%H2O/5%HCl; for RF, Acetone/Water/Hydrochloric acid (conc.), mobile phase VIII: VIII = 45%AC/50%H2O/5%HCl; for RF, Methanol/Water/Hydrochloric acid (conc.), mobile phase VIII: VIII = 55%MeOH/40%H2O/5%HCl
Description: Chromatographic determination of lipophilicity
Merck, Darmstadt, Germany). The mobile phase contained organic modifier (methanol, acetone or dioxane), water and hydrochloric acid.
Methanol was varied in the range […]
with an increment of 10%. […]
before chromatogram development. The solvent developing distance was 4.5 cm. Detection of […]
All experiments were performed at ambient temperature (22±2 °C). Retention parameters were calculated as previously described. […]

[5] = logarithm of Ki in µM, BChE, dependent variable of the QSAR model, read-out: Y Measured 2 log(ki)Bche, log (Ki/µM BChE) (converted)
[6] = ± standard error, 25 °C, ATCh substrate, read-out: Ki BChE
[7] = log (Ki/µM AChE), read-out: Y Measured 1 log(ki)Ache (converted)
[8] = ± standard error, 25 °C, ATCh substrate, read-out: Ki AChE
[9] = Acetone/Water/Hydrochloric acid (conc.)
[10] = Dioxane/Water/Hydrochloric acid (conc.)
[11] = Methanol/Water/Hydrochloric acid (conc.)

T1 sequence (P06276 29-602): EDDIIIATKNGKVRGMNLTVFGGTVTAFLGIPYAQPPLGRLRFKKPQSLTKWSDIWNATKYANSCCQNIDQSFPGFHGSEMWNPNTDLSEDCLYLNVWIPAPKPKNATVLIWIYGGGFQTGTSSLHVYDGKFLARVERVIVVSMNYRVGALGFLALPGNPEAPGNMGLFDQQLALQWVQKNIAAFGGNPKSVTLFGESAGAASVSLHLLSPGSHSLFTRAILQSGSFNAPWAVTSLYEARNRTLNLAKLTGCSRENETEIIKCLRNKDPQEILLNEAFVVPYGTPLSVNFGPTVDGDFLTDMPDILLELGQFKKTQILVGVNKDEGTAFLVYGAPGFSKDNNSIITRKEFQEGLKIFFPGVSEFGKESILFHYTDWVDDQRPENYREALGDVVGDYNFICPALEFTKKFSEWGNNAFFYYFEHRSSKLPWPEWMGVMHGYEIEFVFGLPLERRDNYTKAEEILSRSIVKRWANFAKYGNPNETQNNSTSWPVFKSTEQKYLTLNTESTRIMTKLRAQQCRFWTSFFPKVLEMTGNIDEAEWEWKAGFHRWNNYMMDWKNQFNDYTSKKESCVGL

FC(F)(F)c1ccc2c(NCCNCC34CC5CC(CC(C5)C3)C4)ccnc2c1 [Compound 6]
Ki [1, 5]: 3.5 µM | Ki [1, 6]: 3.5 ± 0.3 µM | IS [2]: 2.9 | Ki [2, 7]: 1.2 µM | Ki [2, 8]: 1.2 ± 0.1 µM | FRAP ([3]; 10 µM compound): 4.6 ± 0.8 µM | FRAP ([3]; 100 µM compound): 25 ± 6 µM | RM0 [4, 9]: 2.0143 | b [4, 9]: 3.169 | RM0 [4, 10]: 0.9723 | b [4, 10]: 1.909 | RM0 [4, 11]: 2.421 | b [4, 11]: 3.208 | RF, Methanol/Water/Hydrochloric acid (conc.), mobile phase I [4]: 0.73 | RF, Dioxane/Water/Hydrochloric acid (conc.), mobile phase II [4]: 0.74 | RF, Methanol/Water/Hydrochloric acid (conc.), mobile phase II [4]: 0.67 | RF, Acetone/Water/Hydrochloric acid (conc.), mobile phase III [4]: 0.57 | RF, Dioxane/Water/Hydrochloric acid (conc.), mobile phase III [4]: 0.7 | RF, Methanol/Water/Hydrochloric acid (conc.), mobile phase III [4]: 0.51 | RF, Dioxane/Water/Hydrochloric acid (conc.), mobile phase IV [4]: 0.7 | RF, Acetone/Water/Hydrochloric acid (conc.), mobile phase IV [4]: 0.53 | RF, Methanol/Water/Hydrochloric acid (conc.), mobile phase IV [4]: 0.53 | RF, Acetone/Water/Hydrochloric acid (conc.), mobile phase IX [4]: 0.11 | RF, Methanol/Water/Hydrochloric acid (conc.), mobile phase IX [4]: 0.11 | RF, Dioxane/Water/Hydrochloric acid (conc.), mobile phase V [4]: 0.49 | RF, Acetone/Water/Hydrochloric acid (conc.), mobile phase V [4]: 0.45 | RF, Methanol/Water/Hydrochloric acid (conc.), mobile phase V [4]: 0.44 | RF, Dioxane/Water/Hydrochloric acid (conc.), mobile phase VI [4]: 0.33 | RF, Acetone/Water/Hydrochloric acid (conc.), mobile phase VI [4]: 0.36 | RF, Methanol/Water/Hydrochloric acid (conc.), mobile phase VI [4]: 0.39 | RF, Acetone/Water/Hydrochloric acid (conc.), mobile phase VII [4]: 0.32 | RF, Methanol/Water/Hydrochloric acid (conc.), mobile phase VII [4]: 0.23 | RF, Acetone/Water/Hydrochloric acid (conc.), mobile phase VIII [4]: 0.24 | RF, Methanol/Water/Hydrochloric acid (conc.), mobile phase VIII [4]: 0.18

FC(F)(F)c1ccc2c(NCCCNCC34CC5CC(CC(C5)C3)C4)ccnc2c1 [Compound 7]
Ki [1, 5]: 2.6 µM | Ki [1, 6]: 2.6 ± 0.2 µM | IS [2]: 2.4 | Ki [2, 7]: 1.1 µM | Ki [2, 8]: 1.1 µM | FRAP ([3]; 10 µM compound): 7.1 ± 2.1 µM | FRAP ([3]; 100 µM compound): 21 ± 7 µM | RM0 [4, 9]: 2.012 | b [4, 9]: 3.156 | RM0 [4, 10]: 0.9445 | b [4, 10]: 1.874 | RM0 [4, 11]: 2.606 | b [4, 11]: 3.427 | RF, Methanol/Water/Hydrochloric acid (conc.), mobile phase I [4]: 0.73 | RF, Dioxane/Water/Hydrochloric acid (conc.), mobile phase II [4]: 0.74 | RF, Methanol/Water/Hydrochloric acid (conc.), mobile phase II [4]: 0.67 | RF, Acetone/Water/Hydrochloric acid (conc.), mobile phase III [4]: 0.57 | RF, Dioxane/Water/Hydrochloric acid (conc.), mobile phase III [4]: 0.7 | RF, Methanol/Water/Hydrochloric acid (conc.), mobile phase III [4]: 0.51 | RF, Dioxane/Water/Hydrochloric acid (conc.), mobile phase IV [4]: 0.7 | RF, Acetone/Water/Hydrochloric acid (conc.), mobile phase IV [4]: 0.54 | RF, Methanol/Water/Hydrochloric acid (conc.), mobile phase IV [4]: 0.51 | RF, Acetone/Water/Hydrochloric acid (conc.), mobile phase IX [4]: 0.11 | RF, Methanol/Water/Hydrochloric acid (conc.), mobile phase IX [4]: 0.09 | RF, Dioxane/Water/Hydrochloric acid (conc.), mobile phase V [4]: 0.51 | RF, Acetone/Water/Hydrochloric acid (conc.), mobile phase V [4]: 0.42 | RF, Methanol/Water/Hydrochloric acid (conc.), mobile phase V [4]: 0.44 | RF, Dioxane/Water/Hydrochloric acid (conc.), mobile phase VI [4]: 0.33 | RF, Acetone/Water/Hydrochloric acid (conc.), mobile phase VI [4]: 0.36 | RF, Methanol/Water/Hydrochloric acid (conc.), mobile phase VI [4]: 0.36 | RF, Acetone/Water/Hydrochloric acid (conc.), mobile phase VII [4]: 0.32 | RF, Methanol/Water/Hydrochloric acid (conc.), mobile phase VII [4]: 0.23 | RF, Acetone/Water/Hydrochloric acid (conc.), mobile phase VIII [4]: 0.24 | RF, Methanol/Water/Hydrochloric acid (conc.), mobile phase VIII [4]: 0.15
